# Assay results: patent US10188858B2, “Method and device for treating a tissue with a high frequency electromagnetic field” (University of Cincinnati, priority 2013, dated 2019)
# What was measured:
# VEGF = VEGF protein release by endothelial cells (ELISA) with inhibitors; format: cell-based, C57 mice
# Description: Cells from passages 4-9 were used. […] VEGF and PIGF are two major angiogenic cytokines acting through VEGF receptors pathway. VEGF binds to both VEGFR1 and VEGFR2 receptors, although signals through VEGFR2. In contrast, PIGF which only binds to and signals through VEGFR1. To determine the effect of EF on the VEGF and PIGF protein release by endothelial cells, culture medium samples (at least N=6 separate experiments) were used to measure VEGF and PIGF protein levels using appropriate ELISA kits (R&D Systems, MN, USA).
# MEK = test: Total and phosphorylated MEK levels (sandwich ELISA) with inhibitors; format: cell-based, C57 mice
# Description: (§1) Murine microvascular endothelial cells were isolated from the lungs of C57 mice (Jackson Laboratory, Maine, USA) as described previously. Cells were doubly sorted using PECAM-1- and ICAM-2-conjugated magnetic beads (Invitrogen Corporation, CA, USA) and cultured in medium M199 (HyClone, UT, USA) supplemented with 10% fetal bovine serum (FBS; Atlanta Biologicals, GA, USA), 1% antibiotic/antimycotic (AB/AM; Atlanta Biologicals, USA), 1% heparin (Sigma-Aldrich, MO, USA) and 1Ong/mL endothelial growth factor supplement (Sigma-Aldrich, MO, USA). Cells from passages 4-9 were used. All experiments were conducted in the culture medium (medium M199, 10% FBS, 1% antibiotic/antimycotic and 1% heparin) without additional growth factor supplementation.
# (§2) Capillary morphogenesis, and MAPK pathways activation were quantified following 12 hours of EF exposure, and the analyses of VEGF expression, cell proliferation and apoptosis were conducted up to 24 hours of EF exposure. The experimental groups included endothelial cells exposed to high frequency EF, low frequency EF and a group not exposed to EF.
# (§3) After EF exposure, cells were lysed using buffer containing 20 mM Tris-HCl, 150 mM NaCl, 1 mM Na2EDTA, 1 mM EGTA, 1% Triton, 2.5 mM sodium pyrophosphate, 1 mM beta-glycerophosphate, 1 mM Na3VO4, 1 μg/ml leupeptin and 1 mM phenylmethylsulfonyl fluoride (PMSF). The total protein concentration in each sample lysate was determined using CoomassiePlus Assay Kit (Thermo Fisher Scientific, IL, USA). 10 μg of total protein was used for all MAPK pathway ELISAs. The total and phosphorylated levels of ERK, MEK, p38 and JNK proteins were quantified using appropriate sandwich ELISA kits (Cell Signaling Technology, MA, USA). MEK-cRaf complex levels and free (unbound) MEK levels were quantified according to previously described protocols with modifications. The total MEK levels are presented in optical densities and phosphorylated MEK, MEK-cRaf and pMEK-cRaf levels are normalized to total MEK levels. For negative control, β-actin (Invitrogen, USA) was immunoprecipitated from the lysate and subjected to ELISAs. All ELISA assays were performed in duplicates or triplicates, with all experiments repeated at least N=6 times.
# To determine the role of VEGF signaling in EF-mediated angiogenic responses, experiments were repeated in the presence of 0.1 μg/mL soluble anti-mouse VEGF blocking antibody (R&D Systems, MN, USA), or 5 μM SU5416 (Sigma-Aldrich, MO, USA), a specific pharmacological VEGFR2inhibitor, or in the presence of 10 μM U0126 MEK inhibitor (Sigma-Aldrich, MO, USA). […] To examine the role of PI3K, Ca^2+ and eNOS signaling in EF-mediated MEK activation, cells were treated with 10 μM LY294002 (PI3K inhibitor), 10 μM BAPTA (Ca^2+ chelator), or 200 μM Nω-Nitro-L-arginine methyl ester hydrochloride (L-NAME, eNOS inhibitor),respectively, and the total and phosphorylated MEK levels were measured using ELISA. All inhibitors were added to the culture supernatant and pre-incubated for one hour to equilibrate respective target blocking prior to EF exposure. All analyses were done in duplicates/triplicates, and all inhibitor experiments were repeated at least N=3 times.
# MEK-cRaf complex = settings: high frequency EF in the presence of 10 μM U0126, compared to low frequency or no-EF groups
# Description: as §1, §2
# as §3, with “All ELISA assays were performed in duplicates or triplicates, with all experiments repeated at least N=6 times.” left out
# [1] = system: Murine microvascular endothelial cells; test: In vitro capillary morphogenesis (nanofiber-based angiogenesis assay) with inhibitors; format: cell-based, C57 mice
# Method: Cells from passages 4-9 were used. […] Capillary morphogenesis was assessed using nanofiber-based angiogenesis assay previously developed in the lab, in which endothelial cells seeded on RAD16-II peptide nanofiber hydrogel (SynBioSci Corporation, CA, USA) undergo spontaneous capillary morphogenesis with clearly identifiable lumens in the absence of external angiogenic growth factors. Endothelial cells were seeded on the surface of 1% (w/v) hydrogel in cell culture inserts (Millipore, MA, USA) at a seeding density of 10^5 cells/cm^2. Cells seeded on 5% gelatin-coated inserts were used as a negative control. Cells were labeled with CellTracker dye (Invitrogen, USA) before seeding or with Phalloidin-TRITC (Sigma Aldrich, St Louis, Mo., USA). After EF exposure, samples (at least N=10 separate EF exposure experiments per group) were fixed with 2% formaldehyde, and images of the sample surface (n=5 per sample) were captured at 20× magnification using an inverted fluorescent microscope (Olympus IX81; Olympus, Pa., USA). The characteristic size of capillary-like networks was determined using correlation analysis and custom-written MATLAB code (The Math Works, MA, USA).
# [2] = 10 μM U0126, all experimental groups, compared to no inhibitor controls
# [3] = 10 μM U0126, high frequency EF vs low frequency EF and no-EF groups
smiles,measurement,setting,value
N#CC(=C(/N)Sc1ccccc1N)/C(C#N)=C(\N)Sc1ccccc1N [U0126],VEGF release by endothelial cells,VEGF; [2],significantly reduced
same,effect of high frequency EF on VEGF release,VEGF; [3],effectively reversed
same,total concentration of MEK,MEK; presence of 10 μM U0126,did not affect
same,free MEK levels,MEK-cRaf complex,increased
same,phosphorylation of MEK-cRaf complex (pMEK-cRaf),MEK-cRaf complex,reduced
same,protein levels of MEK-cRaf complex,MEK-cRaf complex,reduced
same,capillary morphogenesis (network size),[1]; [2],significantly reduced
same,effect of high frequency EF on capillary morphogenesis,[1]; [3],effectively reversed
Cc1cc(C)c(/C=C2\C(=O)Nc3ccccc32)[nH]1 [SU5416],VEGF release,"VEGF; 5 μM SU5416, all experimental groups, including no-EF controls",significantly reduced
same,high frequency EF-induced MEK phosphorylation,"MEK; 5 μM SU5416, 7.5 GHz EF vs low frequency and no-EF controls",did not block
same,capillary morphogenesis,"[1]; 5 μM SU5416, all experimental groups, including no-EF controls, 12 hours",completely abolished
"COC(=O)[C@@H](N)CCCNC(=N)N[N+](=O)[O-].Cl [L-NAME, Nω-Nitro-L-arginine methyl ester hydrochloride]",EF-induced increase in pMEK,"MEK; 200 μM L-NAME, high frequency EF",abolished
same,base pMEK levels,"MEK; 200 μM L-NAME, no-EF controls",did not affect
O=C(O)CN(CC(=O)O)c1ccccc1OCCOc1ccccc1N(CC(=O)O)CC(=O)O [BAPTA],MEK phosphorylation levels,"MEK; 10 μM BAPTA, high frequency EF and no-EF groups",significantly reduced
same,phosphorylated MEK levels in high frequency EF group compared to no-EF controls,MEK; in the presence of 10 μM BAPTA,lower
